Data set [1] has as its system NPR2 guanylyl cyclase. The experiment in a line: cGMP production in chondrocytes of intact tibia growth plates (cGi500 FRET sensor imaging). As to conditions: for cGMP increase (CFP/YFP emission ratio from cGi500) on perfusion of agonist: no FGF. In kind it is cell-based, mouse. The protocol: cGMP production in chondrocytes within intact growth plates was measured using tibias dissected from newborn mice (0- to 1-day-old mice) that globally expressed 1 or 2 copies of the cGi500 FRET sensor, as previously described ([27]). Tibias were dissected and cultured overnight on Millicell organotypic membranes (PICMORG50; MilliporeSigma) in BGJb medium (Thermo Fisher Scientific, catalog 12591-038) with 0.1% BSA (MP Biomedicals, catalog 103700), 100 units/mL of penicillin, and 100 μg/mL of streptomycin (Thermo Fisher Scientific, 15140-122). In preparation for imaging, each tibia was slit to remove the tissue overlying the growth plate. Where indicated, the tibia was incubated in LB-100, cantharidin, or control medium, followed by addition of FGF18 (0.5 μg/mL + 1 μg/mL heparin) or control medium containing heparin only. The tibia was then placed in a perfusion slide (ibidi USA, catalog 80186, special order with no adhesive), and the growth plate was imaged on the stage of a confocal microscope, as previously described ([27]).

Another data set deals with NPR2. The experiment in a line: NPR2 phosphorylation in primary rib chondrocyte cultures (Phos-tag gel electrophoresis, Western blot). In kind it is cell-based, mouse. As to conditions: for NPR2 dephosphorylation in response to FGF: then FGF18 0.5 μg/mL 10 minutes. The protocol:
Rib cages were dissected from newborn mice (0–2 days old) and trimmed to remove the skin, spinal cord, and soft tissue around the sternum and ribs. Nonchondrocyte tissue was digested away by incubating the rib cages in 2 mg/mL pronase (Roche, catalog 10165921001) in PBS for 1 hour in a shaking water bath at 37°C and was then incubated in 3 mg/mL collagenase D (Roche, catalog 11088866001) in medium for 1 hour. After washing, the rib cages were transferred to a dish with fresh collagenase D and incubated for 5–6 hours, with trituration at 2 hours, to release the chondrocytes. The isolated cells were passed through a 40 μm nylon cell strainer (Corning, catalog 431750), resuspended in DMEM/F12 medium (Thermo Fisher Scientific, catalog 11320-033) with 10% FBS (Thermo Fisher Scientific, catalog 10082-139), 100 units/mL of penicillin, and 100 μg/mL of streptomycin. The cells were plated in 35 mm tissue culture dishes, at a density corresponding to 1 newborn mouse per dish, and cultured for 3 days, at which point the cells were approximately 75%–90% confluent. They were then washed with PBS and incubated in serum-free medium for 18 hours. The cells were then incubated in LB-100 (10 μM), or control medium, followed by addition of FGF18 (0.5 μg/mL + 1 μg/mL heparin) or control medium containing heparin only.
At end of the incubation period, dishes were washed in PBS, and cells were lysed in 250 μL of 1% SDS containing 10 mM sodium fluoride, 1 μM microcystin-LR (Cayman Chemical, catalog 10007188), and protease inhibitor cocktail (Roche, catalog 04 693 159 001). Protein content was determined by a BCA assay (Pierce, catalog 23225). The protein yield per newborn mouse was approximately 200–300 μg.
Proteins were separated in a Phos-tag–containing gel, as previously described ([58]), except that chondrocyte lysates (30 μg protein) were used without immunoprecipitation. Phos-tag and protein size markers were obtained from Fujifilm Wako Pure Chemical (catalogs AAL-107 and 230-02461, respectively). For these studies, we used mice with HA-tagged NPR2 ([43]), and blots were probed with an antibody against the HA tag (Cell Signaling Technology, catalog 2367, 1:1000 dilution). The specificity of this antibody is validated in Supplemental Figure 3. Note that molecular weight markers are only approximate for Phos-tag gels.

In another data set the test system is Fgfr3^Y367C/+ femurs. The experiment in a line: Ex vivo culture of fetal femurs, growth in length and area. As to conditions: E16.5 Fgfr3^Y367C/+ femurs, 6-day culture; LB-100 10 μM, BMN-111 0.1 μM. Further details: species or system mouse. The protocol: Femurs from E16.5 embryos were cultured ex vivo, as described previously ([32], [47]). The left femur was cultured in the presence of LB-100 (10 μM), BMN-111 (0.1 μM), or LB-100 (10 μM) + BMN-111 (0.1 μM) and was compared with the vehicle-treated right femur. The bone’s length was measured on day 0 (D0) and D6. Images were captured with an Olympus SZX12 stereo microscope and quantified using cellSens software (Olympus). The results were expressed as the increase in femur length or area (D6 – D0) in the presence or absence of LB-100, BMN-111, or LB-100 + BMN-111. Bone length and area were measured as shown in Supplemental Figure 5. To generate the graphs shown in Figure 3, the length or 2-dimensional area on D0 was subtracted from the length or area on D6 to calculate the amount of growth. These measurements of growth in drug-treated bones were divided by the mean values from corresponding measurements of control (vehicle-treated) bones; the graphs show the ratio of treated/control growth.

Data set [2] concerns growth plate chondrocytes of Fgfr3^Y367C/+ femurs. The experiment in a line: Histology of growth plates of ex vivo cultured femurs (HES, COLX immunostaining). Details: species or system mouse. Conditions: 6-day culture, LB-100 10 μM, BMN-111 0.1 μM. The source says: After a 6-day culture period, fetal femur (E16.5) explants were fixed in 4% paraformaldehyde, decalcified with EDTA (0.4M), and embedded in paraffin. Serial 5 μm sections were stained with hematoxylin‑eosin‑safran (HES) reagent, using standard protocols. For immunohistochemical assessment, sections were labeled with the following antibodies and a Dako Envision Kit: anti-COLX (BIOCYC, catalog N.2031501005; 1:50 dilution), and anti–phosphorylated ERK1‑2 ([…]) (Cell Signaling Technology, catalog 4370; 1:100 dilution). Images were captured with an Olympus PD70-IX2-UCB microscope and quantified using cellSens software.
Mean areas of individual hypertrophic chondrocytes were measured from COLX-labeled sections, within a 166 μm wide × 76 μm high box positioned 50 μm from mineralization front (Supplemental Figure 6). The measurements were made manually using Fiji software and the freehand selection tool. […] We measured the total area occupied by chondrocytes within the whole growth plate and the area occupied by COLX^+ chondrocytes. The area for proliferating chondrocytes was calculated by subtracting the COLX^+ area from the whole growth plate area.

For the next data set, the system named is Fgfr3^Y367C/+ mice. Further details: method as in PMID 23200862. Conditions: cited from earlier work.
For the next data set, the system named is children with ACH. Details: method as in PMID 31269546, PMID 32891212. As to conditions: children 5–14 years of age with ACH, up to 42 months, phase 2 and 3 data; cited from earlier work.
The subject of data set [3] is NPR2 guanylyl cyclase. Further details: method as in PMID 29199951. Conditions: 100 μM; cited from earlier work.
The target of data set [4] is T1, recombinant PPP1CA (PPP1C) (Homo sapiens, UniProt P62136).
T1 construct: made in house; host or cells: E. coli BL-21
T1 sequence (P62136 whole entry): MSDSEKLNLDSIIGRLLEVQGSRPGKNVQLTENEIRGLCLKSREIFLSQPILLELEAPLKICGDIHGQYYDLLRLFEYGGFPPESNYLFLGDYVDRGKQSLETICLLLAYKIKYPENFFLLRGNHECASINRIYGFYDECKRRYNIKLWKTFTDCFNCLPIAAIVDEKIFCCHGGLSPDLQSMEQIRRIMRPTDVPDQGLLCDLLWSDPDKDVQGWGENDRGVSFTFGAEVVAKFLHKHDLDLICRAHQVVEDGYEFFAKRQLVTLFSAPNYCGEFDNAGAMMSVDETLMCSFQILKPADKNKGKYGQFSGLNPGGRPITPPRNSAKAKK
The experiment in a line: Phosphatase activity inhibition assay (DiFMUP or [32P]-phosphohistone substrate). In kind it is biochemical. The protocol:
The coding sequence of human PPP1CA was expressed as a maltose binding protein fusion in a BL-21 strain of E. coli and purified as previously described ([55]). Phosphohistone phosphatase assays were performed as previously described ([55], [56]). Briefly, LB-100, at the indicated concentrations, or vehicle control (H2O) was added to enzyme/buffer aliquots about 10 minutes prior to starting assays by the addition of [^32P]-phosphohistone substrate (to a final assay concentration of 300 nM incorporated phosphate). [^32P]-phosphohistone was prepared by the phosphorylation of bovine brain histone (MilliporeSigma, type-2AS) with cAMP-dependent protein kinase (PKA) in the presence of cAMP and [^32P]-ATP using established methods ([56], [57]). Phosphatase activity was measured by the quantitation of [^32P]-labeled orthophosphate liberated from the substrate using established protocols ([57]). 6,8-Difluoro-4-methylumbelliferyl phosphate–based (DiFMUP-based) inhibition assays were conducted as described ([56], [57]), in a 96-well format using DiFMUP (Invitrogen) (100 μM final assay concentration). IC50 values were calculated from a 10-point concentration/dose response curve by a 4-parameter logistic fit of the data, using 3–8 replicates per concentration.

For the next data set, the system named is PPP2C. Further details: method as in PMID 30679389. Conditions: reported previously, read-out: Phosphatase IC50 mean ± SE, PPP2C, cited from earlier work.
The subject of a further data set is PPP5C. Further details: method as in PMID 30679389. Conditions: reported previously, read-out: Phosphatase IC50 mean ± SE, PPP5C, cited from earlier work.
Where [5] appears, read: substrate [32P]-labeled phosphohistone.

Read-outs that look alike come from different tables or passages of the source. Bridges are numbered along the chain shown (N, C = ends).

Take “FGF18: fibroblast growth factor 18 used to activate FGF receptor”: in the data set with NPR2 guanylyl cyclase [1] (pretreatment 0.5 μg/mL FGF18 + 1 μg/mL heparin for 80 minutes, 0.1 μM CNP), the “Effect on cGMP increase in response to CNP perfusion” value is given as “suppressed the cGMP increase”. Moreover, the NPR2 phosphorylation entry in the data set with NPR2 (FGF18 0.5 μg/mL for 10 minutes) is “decrease in NPR2 phosphorylation”.

For the compound “ANP: A-type natriuretic peptide, which activates the NPR1 guanylyl cyclase”, the “cGMP increase (CFP/YFP emission ratio from cGi500) on perfusion of agonist” value in the data set on NPR2 guanylyl cyclase [1] (0.1 μM agonist perfused across growth plate of newborn mouse tibia) is given as “did not increase cGMP”.

Consider “(Cyc[23,39])H2N-PGQEHPNARKYKGANKKGLSKGCFGLKLDRIGSMSGLGC-OH (H-PGQEHPNARKYKGANKKGLSKGCFGLKLDRIGSMSGLGC-OH; disulfide 23-39) [BMN-111, protease-resistant CNP analog, NPR2 agonist]”, for which the NPR2 phosphorylation entry in the data set with NPR2 (0.1 μM for 1 hour, independently of FGF treatment) is recorded as “some reduction in NPR2 phosphorylation”. Besides, in the data set on Fgfr3^Y367C/+ femurs, the “Increase in bone length, ratio treated/vehicle-treated control” value is listed as 1.78; the “Increase of total bone and cartilage area, growth ratio treated/control” value came to 1.51. Also, in data set [2] (proximal growth plate), the “Size of Fgfr3^Y367C/+ hypertrophic chondrocytes” value is recorded as “increased the size”. Further, the “Increase of total proliferative growth plate area of the femur over vehicle” value in data set [2] (proximal plus distal growth plates) was 20%. Further, the “Bone growth in mouse model of ACH” value in the data set with Fgfr3^Y367C/+ mice is “increases bone growth”. In addition, the Annualized growth velocity result in the data set on children with ACH is listed as “sustained increase in annualized growth velocity”.

As for `CCN(CC)/[N+]([O-])=N/O.CCNCC` [DEA/NO], the “cGMP increase (CFP/YFP emission ratio from cGi500) on perfusion of agonist” value in the data set on NPR2 guanylyl cyclase [1] (10 μM perfused across growth plate of newborn mouse tibia) was “did not increase cGMP”.

As to `C[C@@]12C(=O)OC(=O)[C@]1(C)[C@H]1CC[C@@H]2O1` [cantharidin, Cantharidin], the “Effect on inactivation of NPR2 by FGF in growth plate chondrocytes” value in the data set on NPR2 guanylyl cyclase [3] is given as “inhibits the inactivation of NPR2”.

As to `CN1CCN(C(=O)C2C3CCC(O3)C2C(=O)O)CC1` (stereo not shown) [LB-100, 3-[4-methylpiperazine-1-carbonyl]-7-oxabicyclo[2.2.1]heptane-2-carboxylic acid], the IC50 in data set [4] (2 established assays with different substrates, read-out: IC50 for inhibition of PPP1C) is less than 2000 nM; in data set [4] (substrate DiFMUP, read-out: Phosphatase IC50 mean ± SE, PPP1C) it was 1800 ± 21 nM; in data set [4] (substrate [32P]-labeled phosphohistone, read-out: Phosphatase IC50 mean ± SE, PPP1C), 1680 ± 130 nM; with PPP2C (substrate DiFMUP), 390 ± 13 nM; with PPP2C (setting [5]), 640 ± 37 nM; in the data set with PPP5C (substrate DiFMUP) it was 1820 ± 93 nM. Besides, in the data set with PPP5C (setting [5]), the IC50 was 4900 ± 290 nM. Also, the “CNP-induced cGMP increase in FGF-treated tibias” value in the data set with NPR2 guanylyl cyclase [1] (1 μM preincubation 60 minutes before FGF18 (80 minutes)) is “no effect”; in the data set on NPR2 guanylyl cyclase [1] (5 μM preincubation 60 minutes before FGF18 (80 minutes)), “enhanced”; with NPR2 guanylyl cyclase [1] (10 μM preincubation 60 minutes before FGF18 (80 minutes)) it was “enhanced”. In the data set on NPR2 guanylyl cyclase [1] (5 μM LB-100 equivalent to 10 μM cantharidin), the “Effectiveness in counteracting inactivation of NPR2 by FGF, compared with cantharidin” value is on record as “more effective than cantharidin”. For the same compound, in the data set with NPR2 guanylyl cyclase [1] (10 μM, 2-hour incubation), the “Chondrocyte morphology in the live growth plate” value is “no visible change in chondrocyte morphology”. In addition, the entries for the “NPR2 dephosphorylation in response to FGF” value with NPR2 (10 μM preincubation 1 hour with BMN-111 0.1 μM present) and in the data set on NPR2 (10 μM preincubation 1 hour) were “counteracts the FGF-induced dephosphorylation” and “only partial”, respectively. Also, the “Increase in bone length, ratio treated/vehicle-treated control” value with Fgfr3^Y367C/+ femurs is 1.30. The “Increase of total bone and cartilage area, growth ratio treated/control” value in the data set with Fgfr3^Y367C/+ femurs was determined as 1.40.

For orientation: IC50 means the point on the concentration scale where inhibition reaches its midpoint.

These data come from paper PMC8262325, “Phosphatase inhibition by LB-100 enhances BMN-111 stimulation of bone growth” (JCI Insight, 2021).
